Columns and labels:
[1] = biological target: T1, Myc proto-oncogene protein (Homo sapiens, UniProt P01106); test: Inhibition of Myc (unknown origin) expressed in HEK293T cells incubated for 16 hrs by firefly/renilla luciferase reporter gene assay; format: cell-based
NAMALVA = test: Cytotoxicity against human NAMALWA cells assessed as decrease in cell viability incubated for 72 hrs by CellTiter-Glo assay; format: functional, cell-based
NCI-H1975 = test: Cytotoxicity against human NCI-H1975 cells assessed as decrease in cell viability incubated for 72 hrs by CellTiter-Glo assay; format: functional, cell-based; details: NCI-H1975, 72 h
[2] = Cytotoxicity against human KLP1 cells assessed as decrease in cell viability incubated for 72 hrs by CellTiter-Glo assay; format: functional, cell-based
[3] = biological target: T1, Myc proto-oncogene protein; test: Binding affinity to Myc in cell lysates (unknown origin) assessed as c-Myc levels at 5 uM incubated using compound 55 beads by Western blotting based pull down assay relative to control; format: subcellular; details: Lysate
[4] = Cytotoxicity against human SNUC5 cells assessed as decrease in cell viability incubated for 72 hrs by CellTiter-Glo assay; format: functional, cell-based
[5] = biological target: T1, Myc proto-oncogene protein; test: Binding affinity to Myc in cell lysates (unknown origin) assessed as c-Myc levels at 5 uM incubated using compound 19 beads by Western blotting based pull down assay relative to control; format: subcellular; details: Lysate
HeLa = test: Cytotoxicity against human HeLa cells assessed as decrease in cell viability incubated for 72 hrs by CellTiter-Glo assay; format: functional, cell-based
[6] = biological target: T1, Myc proto-oncogene protein; test: Binding affinity to Myc in cell lysates (unknown origin) assessed as c-Myc levels at 1 uM incubated using compound 19 beads by Western blotting based pull down assay relative to control; format: subcellular; details: Lysate
Lymphoma cell line = test: Cytotoxicity against mouse E-mu-Myc lymphoma cells assessed as decrease in cell viability incubated for 72 hrs by CellTiter-Glo assay; format: functional, cell-based

T1 sequence (P01106 whole entry): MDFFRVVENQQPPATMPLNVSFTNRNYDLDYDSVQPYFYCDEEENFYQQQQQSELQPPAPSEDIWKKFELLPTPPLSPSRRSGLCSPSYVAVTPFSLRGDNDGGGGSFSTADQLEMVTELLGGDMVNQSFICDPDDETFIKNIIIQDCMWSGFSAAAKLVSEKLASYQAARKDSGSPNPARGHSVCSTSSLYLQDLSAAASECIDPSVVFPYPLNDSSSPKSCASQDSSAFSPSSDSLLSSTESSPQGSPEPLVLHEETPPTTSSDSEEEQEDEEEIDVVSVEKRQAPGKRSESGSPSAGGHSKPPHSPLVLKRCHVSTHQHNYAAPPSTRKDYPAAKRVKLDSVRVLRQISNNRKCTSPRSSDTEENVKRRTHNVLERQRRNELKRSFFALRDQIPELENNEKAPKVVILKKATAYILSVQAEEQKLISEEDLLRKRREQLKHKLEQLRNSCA

SMILES: O=C(O)c1ccc(Sc2nc3ccccc3[nH]2)o1
- IC50 [1]: Not Active

SMILES: COC(=O)c1ccc(Sc2nc3ccccc3[nH]2)o1
- IC50 [1]: Not Active

SMILES: CC(C)N1C(=O)S/C(=C\c2ccc(Sc3nc4ccccc4[nH]3)o2)C1=O
- IC50 (NAMALVA): 17.3 to 21.1 µM
- IC50 (NCI-H1975): 2.71 to 24.9 µM
- IC50 [2]: 4.64 µM
- Activity [3]: 52%
- IC50 [4]: 11.7 µM
- Activity [5]: 73 to 84%
- IC50 (HeLa): 3.32 µM
- Activity [6]: 91%

SMILES: CC(C)N1C(=O)S/C(=C\c2ccc(-c3nc4ccccc4[nH]3)o2)C1=O
- IC50 (NAMALVA): 20.1 µM
- IC50 (NCI-H1975): 45.3 µM
- IC50 (Lymphoma cell line): > 50 µM

SMILES: O=C(O)CN1C(=O)S/C(=C\c2ccc(Sc3nc4ccccc4[nH]3)o2)C1=O
- IC50 [1]: Not Active

SMILES: O=C(c1ccc(Sc2nc3ccccc3[nH]2)o1)N1CCOCC1
- IC50 [1]: Not Active

SMILES: O=C(CCCC[C@@H]1SC[C@@H]2NC(=O)N[C@@H]21)NCCCN1C(=O)S/C(=C\c2ccc(Sc3nc4ccccc4[nH]3)o2)C1=O
- IC50 (NCI-H1975): > 50 µM

SMILES: O=C1NC(=O)C(=Cc2ccc(Sc3nc4ccccc4[nH]3)o2)C(=O)N1
- IC50 [1]: Not Active

— ChEMBL document CHEMBL4418492, “Myc modulators and uses thereof” (2018)
